Experimental data taken from patent US10183944B2 (Asana Biosciences, LLC, priority 2011, dated 2019).
Counter-ions that a name gives are not always drawn.

Legend:
[1] = target: Syk (356-635 amino acids) catalytic domain (Homo sapiens (Human), UniProt P43405); test: Inhibition of enzymatic Syk kinase activity (radiometric); type: biochemical; conditions: read-out: IC50 Syk
In short: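 Human Syk (356-635) kinase domain (0.035–7.5 ng/reaction) preincubated with compound 30 minutes at room temperature, then reacted with pG4T substrate, 100 μM ATP (stock) and γ-32P-ATP for 10 minutes at 30° C. Reaction stopped with HCl/ATP, spotted on P81 paper, washed and counted by scintillation. Percent inhibition versus no-compound counts.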

JAK2 = JAK2 (Homo sapiens (Human), UniProt O60674); test: Inhibition of enzymatic JAK2 kinase activity (TR-FRET); type: biochemical; conditions: read-out: IC50 JAK
JAK2, sequence (O60674 808-1132): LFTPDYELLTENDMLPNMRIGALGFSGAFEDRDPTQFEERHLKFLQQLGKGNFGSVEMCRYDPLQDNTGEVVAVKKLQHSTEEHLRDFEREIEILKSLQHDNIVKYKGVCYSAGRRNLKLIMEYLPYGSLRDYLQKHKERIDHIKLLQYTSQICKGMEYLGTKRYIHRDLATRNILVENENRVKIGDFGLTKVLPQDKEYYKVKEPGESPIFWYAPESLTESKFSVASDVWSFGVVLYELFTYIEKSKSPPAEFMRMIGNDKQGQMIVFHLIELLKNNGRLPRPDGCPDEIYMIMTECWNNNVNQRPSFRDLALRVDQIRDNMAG
From the text: The objective of this assay was to screen compounds in a Time-resolved fluorescence resonance energy transfer (TR-FRET) Enzymatic assay method for their potential to inhibit JAK2 (Janus kinase) activity.
TR-FRET assays are homogeneous proximity assays where Eu-labeled antiphosphotyrosine antibody binds to the phosphorylated substrates labeled with Ulight fluorescence acceptor. Eu can transfer energy to Ulight accepter in the complex and the interaction of two dye-labeled binding partners is detected by the energy transfer between a donor and an acceptor dye, and the subsequent light emission by the acceptor dye. The intensity of the light emission is proportional to the level of Ulight peptide phosphorylation.
Two μL of 10% DMSO in blank, substrate control and positive control wells and 2 μL of test compound in test wells was added. Thirteen μL of assay buffer in blank and substrate control wells and 13 μL of Enzyme buffer mix in positive and test wells was added. The reaction mixture was incubated for 30 minutes at RT on a plate shaker. Ultra Light-pGT substrate (5 μL) [poly Glu-Tyr (4:1) labeled with U Light TM dye, a tyrosine kinase substrate] and ATP mix was added to all wells. The reaction plate was incubated for 60 minutes at RT on a plate shaker. The reaction was stopped by adding 40 mM EDTA (10 μL) in buffer. Ten μL of antibody was added to all the wells. The plate was read in a Wallac® 1420 Multilabel Counter Victor 3 instrument (Ex: 340 nm Em: 615 & 665 nm) The following calculations were made:
F@ 665 Value-Buffer blank
F@ 615 Value-Buffer blank
Ratio of F@665/F@615-Substrate Blank
% Activity=(Test Sample/Positive control)*100%
Inhibition=(100−% Activity)

| SMILES | IC50 [1] | IC50 (JAK2) |
| --- | --- | --- |
| O=c1[nH]ncc2nc(N3CCCCC3)nc(Nc3ccc(OCCN4CCNCC4)nc3)c12 [Example 181, 4-((6-(2-(piperazin-1-yl)ethoxy)pyridin-3-yl)amino)-2-(piperidin-1-yl)pyrimido[4,5-d]pyridazin-5(6H)-one] | > 100 nM | > 100 nM |
| O=c1[nH]ncc2nc(N3CCCCCC3)nc(Nc3ccc(-c4nn[nH]n4)cc3)c12 [Example 227, 4-((4-(2H-tetrazol-5-yl)phenyl)amino)-2-(azepan-1-yl)pyrimido[4,5-d]pyridazin-5(6H)-one] | < 50 nM | < 10 nM |
| O=c1[nH]ncc2nc(N3CCCCCC3)nc(Nc3ccc(OC[C@@H]4CO[C@@H](CO)CO4)cc3)c12 [Example 110, 2-(azepan-1-yl)-4-((4-(((2S,5S)-5-(hydroxymethyl)-1,4-dioxan-2-yl)methoxy)phenyl)amino)pyrimido[4,5-d]pyridazin-5(6H)-one] | < 10 nM | < 50 nM |
| N#CCC1CCN(c2nc(Nc3ccc(OCCCO)cc3)c3c(=O)[nH]ncc3n2)CC1 [Example 295, 2-(1-(4-((4-(3-hydroxypropoxy)phenyl)amino)-5-oxo-5,6-dihydropyrimido[4,5-d]pyridazin-2-yl)piperidin-4-yl) acetonitrile] | < 50 nM | < 50 nM |
| CC(C)N(CCOc1ccc(Nc2nc(N3CCCCCC3)nc3cn[nH]c(=O)c23)cc1)C(C)C [Example 188, 2-(azepan-1-yl)-4-((4-(2-(diisopropylamino)ethoxy)phenyl)amino) pyrimido[4,5-d]pyridazin-5(6H)-one] | < 50 nM | < 50 nM |
| N#CCC1CCN(c2nc(Nc3ccc4[nH]nnc4c3)c3c(=O)[nH]ncc3n2)CC1 [Example 335, 2-(1-(4-((1H-benzo[d][1,2,3]triazol-5-yl)amino)-5-oxo-5,6-dihydropyrimido[4,5-d]pyridazin-2-yl)piperidin-4-yl) acetonitrile] | < 50 nM | < 50 nM |
| NC(=O)CC1CCN(c2ccc(Nc3nc(-c4ccccc4)nc4cn[nH]c(=O)c34)cn2)CC1 [Example 102, 2-(1-(5-((5-oxo-2-phenyl-5,6-dihydropyrimido[4,5-d]pyridazin-4-yl)amino)pyridin-2-yl)piperidin-4-yl) acetamide] | < 50 nM | > 100 nM |
| CC(C)(O)C1CCN(c2ccc(Nc3nc(N4CCCCCC4)nc4cn[nH]c(=O)c34)cc2)CC1 [Example 139, 2-(azepan-1-yl)-4-((4-(4-(2-hydroxypropan-2-yl)piperidin-1-yl)phenyl)amino)pyrimido[4,5-d]pyridazin-5(6H)-one] | < 50 nM | < 10 nM |
| O=c1[nH]ncc2nc(N3CCCCCC3)nc(Nc3ccc(N4CCC(CCO)CC4)nc3)c12 [Example 236, 2-(azepan-1-yl)-4-((6-(4-(2-hydroxyethyl)piperidin-1-yl)pyridin-3-yl)amino) pyrimido[4,5-d]pyridazin-5(6H)-one] | < 100 nM | < 50 nM |
| CC(C)(O)C(=O)N1CCN(Cc2ccc(Nc3nc(-c4ccccc4)nc4cn[nH]c(=O)c34)cc2)CC1 [Example 83, 4-((4-((4-(2-hydroxy-2-methylpropanoyl)piperazin-1-yl)methyl)phenyl)amino)-2-phenylpyrimido[4,5-d]pyridazin-5(6H)-one] | < 50 nM | < 50 nM |
| O=C(CC1CCN(c2ccc(Nc3nc(N4CCCCCC4)nc4cn[nH]c(=O)c34)cc2)CC1)NCCO [Example 109, 2-(1-(4-((2-(azepan-1-yl)-5-oxo-5,6-dihydropyrimido[4,5-d]pyridazin-4-yl)amino)phenyl)piperidin-4-yl)-N-(2-hydroxyethyl)acetamide] | < 10 nM | < 10 nM |
| O=C(O)CCC1CCN(c2ccc(Nc3nc(N4CCCCCC4)nc4cn[nH]c(=O)c34)cc2)CC1 [Example 130, 3-(1-(4-((2-(azepan-1-yl)-5-oxo-5,6-dihydropyrimido[4,5-d]pyridazin-4-yl)amino)phenyl)piperidin-4-yl)propanoic acid] | < 10 nM | < 10 nM |
| O=C(O)CC1CCN(Cc2ccc(Nc3nc(N4CCCCCC4)nc4cn[nH]c(=O)c34)cc2)CC1 [Example 77, 2-(1-(4-((2-(azepan-1-yl)-5-oxo-5,6-dihydropyrimido[4,5-d]pyridazin-4-yl)amino)benzyl)piperidin-4-yl)acetic acid] | < 50 nM | < 10 nM |
| CCN1CCN(c2ccc(Nc3nc(-c4ccsc4)nc4cn[nH]c(=O)c34)cc2)CC1 [Example 37, 4-(4-(4-ethylpiperazin-1-yl)phenylamino)-2-(thiophen-3-yl)pyrimido[4,5-d]pyridazin-5(6H)-one hydrochloride] | < 10 nM | < 100 nM |
| O=C(O)CN1CCC(c2ccc(Nc3nc(-c4ccccc4)nc4cn[nH]c(=O)c34)cc2)CC1 [Example 86, 2-(4-(4-((5-oxo-2-phenyl-5,6-dihydropyrimido[4,5-d]pyridazin-4-yl)amino)phenyl)piperidin-1-yl)acetic acid] | < 50 nM | < 50 nM |
| N#CCC1CCN(c2nc(Nc3ccc(OC4CCN(CCO)CC4)cc3)c3c(=O)[nH]ncc3n2)CC1 [Example 291, 2-(1-(4-((4-((1-(2-hydroxyethyl)piperidin-4-yl)oxy)phenyl)amino)-5-oxo-5,6-dihydropyrimido[4,5-d]pyridazin-2-yl)piperidin-4-yl)acetonitrile] | < 50 nM | < 50 nM |
| N#CCC1CCN(c2nc(Nc3ccc(CCCF)cc3)c3c(=O)[nH]ncc3n2)CC1 [Example 337, 2-(1-(4-((4-(3-fluoropropyl)phenyl)amino)-5-oxo-5,6-dihydropyrimido[4,5-d]pyridazin-2-yl)piperidin-4-yl) acetonitrile] | < 50 nM | < 50 nM |
| COCCN1CCN(c2ccc(Nc3nc(N4CCCCCC4)nc4cn[nH]c(=O)c34)cc2)CC1 [Example 255, 2-(azepan-1-yl)-4-((4-(4-(2-methoxyethyl)piperazin-1-yl)phenyl)amino) pyrimido[4,5-d]pyridazin-5(6H)-one] | < 50 nM | < 10 nM |
| COCCOc1ccc(Nc2nc(N3CCCCCC3)nc3cn[nH]c(=O)c23)cc1 [Example 324, 2-(azepan-1-yl)-4-((4-(2-methoxyethoxy)phenyl)amino)pyrimido[4,5-d]pyridazin-5(6H)-one] | < 50 nM | < 50 nM |
| O=c1[nH]ncc2nc(N3CCCCCC3)nc(Nc3ccc(N4CCC(F)CC4)cc3)c12 [Example 289, 2-(azepan-1-yl)-4-((4-(4-fluoropiperidin-1-yl)phenyl)amino)pyrimido[4,5-d]pyridazin-5(6H)-one] | < 50 nM | < 10 nM |
| O=c1[nH]ncc2nc(N3CCCCCC3)nc(Nc3ccc(CO)cc3)c12 [Example 331, 2-(azepan-1-yl)-4-((4-(hydroxymethyl)phenyl)amino)pyrimido[4,5-d]pyridazin-5(6H)-one] | < 50 nM | > 100 nM |
| CCN1CCN(CCc2ccc(Nc3nc(N4CCC(CC#N)CC4)nc4cn[nH]c(=O)c34)cc2)CC1 [Example 197, 2-(1-(4-((4-(2-(4-ethylpiperazin-1-yl)ethyl)phenyl)amino)-5-oxo-5,6-dihydropyrimido[4,5-d]pyridazin-2-yl)piperidin-4-yl)acetonitrile] | < 10 nM | < 10 nM |
| O=c1[nH]ncc2nc(N3CCCCCC3)nc(Nc3ccc(CCCO)cc3)c12 [Example 308, 2-(azepan-1-yl)-4-((4-(3-hydroxypropyl)phenyl)amino)pyrimido[4,5-d]pyridazin-5(6H)-one] | < 50 nM | < 10 nM |
| CC(C)(CO)Oc1ccc(Nc2nc(N3CCCCCC3)nc3cn[nH]c(=O)c23)cc1 [Example 314, 2-(azepan-1-yl)-4-((4-((1-hydroxy-2-methylpropan-2-yl)oxy)phenyl)amino) pyrimido[4,5-d]pyridazin-5(6H)-one] | < 50 nM | < 10 nM |
| O=c1[nH]ncc2nc(N3CCCCCC3)nc(Nc3ccc(OCCC4CCNCC4)cc3)c12 [Example 168, 2-(azepan-1-yl)-4-((4-(2-(piperidin-4-yl)ethoxy)phenyl)amino)pyrimido[4,5-d]pyridazin-5(6H)-one] | < 50 nM | < 50 nM |
| O=C(O)CN1CCN(c2ccc(Nc3nc(N4CCCCCC4)nc4cn[nH]c(=O)c34)cn2)CC1 [Example 144, 2-(4-(5-((2-(azepan-1-yl)-5-oxo-5,6-dihydropyrimido[4,5-d]pyridazin-4-yl)amino)pyridin-2-yl)piperazin-1-yl)acetic acid] | < 100 nM | < 100 nM |
| CC(C)(O)C(=O)N1CCN(c2ccc(Nc3nc(N4CCC(CC#N)CC4)nc4cn[nH]c(=O)c34)cc2)CC1 [Example 223, 2-(1-(4-((4-(4-(2-hydroxy-2-methylpropanoyl)piperazin-1-yl)phenyl)amino)-5-oxo-5,6-dihydropyrimido[4,5-d]pyridazin-2-yl)piperidin-4-yl) acetonitrile] | < 10 nM | < 10 nM |
